Measurements taken from patent US7498329B2, “Salt form of dopamine agonist” (Pfizer Inc., priority 2005, dated 2009).

Tests used:
[1] = target: T1, dopamine D3 receptor (Homo sapiens, UniProt P35462); assay: Functional activity at the dopamine D3 receptor (methods of WO 2004/052372); assay type: cell-based
Experimental: Activity at the dopamine D3 receptor may be determined using the methods described in WO 2004/052372, which is incorporated herein by reference. […] Selectivity is calculated as the D2 EC50 value divided by the D3 EC50 value.

[2] = Hydrate kinetic stability at 0% RH (isothermal thermogravimetric analysis); assay type: physicochemical
Experimental: Isothermal gravimetric analysis of 5-[(2R,5S)-5-methyl-4-propylmorpholin-2-yl]pyridin-2-amine di-S-camsylate monohydrate at 40, 45, 80 and 85° C. Material was held at a selected temperature with a 0% RH flow of nitrogen. 5-[(2R,5S)-5-methyl-4-propylmorpholin-2-yl]pyridin-2-amine di S-camsylate salt dehydrates at 85° C., 0% RH. Many hydrates would be lost at 30° C./0% RH.
ThermoGravimetric Analysis (TGA): Manufactured by TA instruments, model 2950. Approximately 8 mg of the sample was held at analysis temperature in an open pan with 0% RH nitrogen flow for a minimum of 30 min. Results are representative of the kinetic stability of the hydrate over the period of time the sample was exposed.

[3] = Water sorption / hygroscopicity (Dynamic Vapour Sorption); assay type: physicochemical
Experimental: Water sorption of 5-[(2R,5S)-5-methyl-4-propylmorpholin-2-yl]pyridin-2-amine di-S-camsylate monohydrate) at 30° C. Sorption at 90% RH is 0.316%(w/w) of dry weight. This value relates to non-bound water and is in addition to that involved in the crystal lattice.
Dynamic Vapour Sorption (DVS): Automated Sorption Analyser Model DVS-1. Manufactured by Surface Measurements Systems Ltd. UK. Solid (10-20 mg) is exposed to controlled relative humidity (% RH) environment and the weight change recorded over time. The humidity was stepped from 0 to 90 to 0% RH in 15% RH intervals. A rate of sorption of 0.0005%/min needs to be achieved at each humidity before exposure to the next humidity in the method. When a sample is deliquescent equilibrium sorption is not always achieved.

[4] = Hydrate stability under reduced partial pressure (vacuum drying conditions); assay type: physicochemical; conditions: reduced partial pressure at 40° C.
Text: Typically a pharmaceutical hydrate would be expected to dehydrate within a few hours of exposure to 0% RH. […] This is a much higher temperature than would normally be expected for a hydrated salt. Such kinetic stability is desirable for allowing the compound to be successfully milled prior to formulation. • Many hydrates are not stable to the harsh vacuum drying conditions required in the isolation of a pharmaceutical drug product. However, 5-[(2R,5S)-5-methyl-4-propylmorpholin-2-yl]pyridin-2-amine di-S-camsylate monohydrate would be stable in such a process as, upon exposure to reduced partial pressure at 40° C., the hydrate remains down to 10 mbar.

[5] = target: T1, dopamine D3 receptor; conditions: according to WO2004/052372; cited from earlier work

T1 sequence (P35462 whole entry, species assumed): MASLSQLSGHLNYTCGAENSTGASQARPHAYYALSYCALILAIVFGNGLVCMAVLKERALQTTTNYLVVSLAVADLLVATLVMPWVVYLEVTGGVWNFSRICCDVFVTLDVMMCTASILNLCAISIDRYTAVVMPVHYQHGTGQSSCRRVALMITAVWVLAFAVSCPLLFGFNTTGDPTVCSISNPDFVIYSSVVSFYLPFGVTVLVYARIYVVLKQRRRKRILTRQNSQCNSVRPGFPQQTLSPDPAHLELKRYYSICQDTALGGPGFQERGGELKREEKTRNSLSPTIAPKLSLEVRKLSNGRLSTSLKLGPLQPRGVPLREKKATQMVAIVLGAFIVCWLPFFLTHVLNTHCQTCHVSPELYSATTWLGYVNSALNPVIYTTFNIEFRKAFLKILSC

SMILES | EC50 [1] [µM] | selectivity for D3 over D2 ([1]; D2 EC50 value divided by the D3 EC50 value) [fold] | dehydration of the hydrate ([2]; after 3.5 hours, 0% relative humidity (RH) at 30° C.) | temperature at which the dehydration event was observed ([2]; heating in a flow of 0% RH (nitrogen)) [°C] | deliquescence [3] | hygroscopicity [3] | water sorption ([3]; 90% RH, 30° C., non-bound water) | pressure down to which the hydrate remains [4] [mbar] | D3 agonist activity (in words) [5]
CCCN1C[C@@H](c2ccc(N)nc2)OC[C@@H]1C [5-[(2R,5S)-5-methyl-4-propylmorpholin-2-yl]pyridine-2-amine, di((1S)-10-camphorsulfonate)monohydrate] | 0.021 | 476 | does not dehydrate | 85 | not deliquescent | non-hygroscopic | 0.316 %(w/w) of dry weight | 10 | –
CCCN1C[C@@H](c2ccc(N)nc2)OC[C@@H]1C (single isomer, unassigned) | – | – | – | – | deliquescent | – | – | – | selective D3 agonist
